These are literature values, as cited in paper PMC7687107 (Chemmedchem, 2020).

The Kd is the free concentration of one partner at which half of the binding sites on the other are occupied at equilibrium, for simple one-to-one binding.

The target of the data set is tRNA guanine transglycosylase (TGT) (Zymomonas mobilis, UniProt P28720). As to the kind of experiment: SPR. Type of data set: binding.
Chain of tRNA guanine transglycosylase (TGT) (P28720 2-386): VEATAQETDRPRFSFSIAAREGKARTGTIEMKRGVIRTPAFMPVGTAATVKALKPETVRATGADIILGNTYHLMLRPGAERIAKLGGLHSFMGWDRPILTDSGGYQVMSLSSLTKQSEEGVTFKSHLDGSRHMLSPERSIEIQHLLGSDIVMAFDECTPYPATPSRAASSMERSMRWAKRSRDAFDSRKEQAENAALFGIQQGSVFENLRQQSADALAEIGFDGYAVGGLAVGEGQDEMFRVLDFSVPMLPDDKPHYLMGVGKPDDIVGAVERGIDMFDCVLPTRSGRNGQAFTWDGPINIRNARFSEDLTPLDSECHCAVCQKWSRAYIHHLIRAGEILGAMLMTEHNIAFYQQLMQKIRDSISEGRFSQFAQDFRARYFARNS

For the compound `CNc1nc2c(CCC3OC(OC)C(O)C3O)c3[nH]c(N)nc(=O)c3cc2[nH]1` (stereo not shown) [compound 1, 6‐amino‐4‐[2‐(3,4‐dihydroxy‐5‐methoxyoxolan‐2‐yl)ethyl]‐2‐(methylamino)‐1H,5H‐imidazo[4,5‐g]quinazolin‐8‐one], the Kd is 68 ± 5 nM.
